Test results reported in US11401270B2, “Alcoxyamino derivatives for treating pain and pain related conditions” (ESTEVE PHARMACEUTICALS, S.A., priority 2017, dated 2022).
Read-outs that look alike come from different tables or passages of the source.

Experiments:
[1] = biological target: Human norepinephrine transporter (NET) (Homo sapiens (Human), UniProt P23975); assay: Binding Assay to Human Norepinephrine Transporter (NET); conditions: Table 2, dual compounds; human NET enriched membranes, 5 nM [3H]-Nisoxetin; read-out: Ki(nM) NET Hum
Sequence of Human norepinephrine transporter (NET) (P23975 whole entry): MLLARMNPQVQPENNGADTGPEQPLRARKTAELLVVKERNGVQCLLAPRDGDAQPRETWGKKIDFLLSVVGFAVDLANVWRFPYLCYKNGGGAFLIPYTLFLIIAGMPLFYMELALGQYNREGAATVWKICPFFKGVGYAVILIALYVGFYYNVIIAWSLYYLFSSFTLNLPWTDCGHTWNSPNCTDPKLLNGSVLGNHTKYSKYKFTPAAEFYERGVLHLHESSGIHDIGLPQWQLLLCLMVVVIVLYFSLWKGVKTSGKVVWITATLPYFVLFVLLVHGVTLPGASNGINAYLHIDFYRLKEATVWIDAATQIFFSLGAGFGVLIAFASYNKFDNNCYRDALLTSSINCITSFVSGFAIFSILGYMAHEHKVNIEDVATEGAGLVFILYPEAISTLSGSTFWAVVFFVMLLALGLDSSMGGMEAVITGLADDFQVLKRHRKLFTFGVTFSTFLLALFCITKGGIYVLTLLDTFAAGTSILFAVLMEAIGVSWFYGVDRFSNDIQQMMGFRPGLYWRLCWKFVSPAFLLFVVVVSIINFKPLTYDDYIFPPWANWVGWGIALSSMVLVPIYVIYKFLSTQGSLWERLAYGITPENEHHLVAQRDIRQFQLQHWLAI
Description: Binding Assay to Human Norepinephrine Transporter (NET).
Human norepinephrine transporter (NET) enriched membranes (5 μg) were incubated with 5 nM of radiolabeled [3H]-Nisoxetin in assay buffer containing 50 mM Tris-HCl, 120 mM NaCl, 5 mM KCl, pH 7.4.
NSB (non specific binding) was measured by adding 10 μM desipramine. The binding of the test compound was measured in five different concentrations. After 60 min incubation at 4° C., binding reaction was terminated by filtering through Multiscreen GF/C (Millipore) presoaked in 0.5% polyethyleneimine in Vacuum Manifold Station, followed by 3 washes with ice-cold filtration buffer containing 50 mM Tris-HCl, 0.9% NaCl, pH 7.4.
Filter plates were dried at 60° C. for 1 hour and 30 μl of scintillation cocktail were added to each well before radioactivity reading.

[2] = biological target: Human α2δ-1 subunit of Cav2.2 calcium channel (Homo sapiens (Human), UniProt P54289); assay: Binding Assay to Human α2δ-1 Subunit of Cav2.2 Calcium Channel; conditions: human α2δ-1 enriched membranes, 15 nM [3H]-Gabapentin, read-out: Ki(nM) alpha2delta Hum
Sequence of Human α2δ-1 subunit of Cav2.2 calcium channel (P54289 25-1103): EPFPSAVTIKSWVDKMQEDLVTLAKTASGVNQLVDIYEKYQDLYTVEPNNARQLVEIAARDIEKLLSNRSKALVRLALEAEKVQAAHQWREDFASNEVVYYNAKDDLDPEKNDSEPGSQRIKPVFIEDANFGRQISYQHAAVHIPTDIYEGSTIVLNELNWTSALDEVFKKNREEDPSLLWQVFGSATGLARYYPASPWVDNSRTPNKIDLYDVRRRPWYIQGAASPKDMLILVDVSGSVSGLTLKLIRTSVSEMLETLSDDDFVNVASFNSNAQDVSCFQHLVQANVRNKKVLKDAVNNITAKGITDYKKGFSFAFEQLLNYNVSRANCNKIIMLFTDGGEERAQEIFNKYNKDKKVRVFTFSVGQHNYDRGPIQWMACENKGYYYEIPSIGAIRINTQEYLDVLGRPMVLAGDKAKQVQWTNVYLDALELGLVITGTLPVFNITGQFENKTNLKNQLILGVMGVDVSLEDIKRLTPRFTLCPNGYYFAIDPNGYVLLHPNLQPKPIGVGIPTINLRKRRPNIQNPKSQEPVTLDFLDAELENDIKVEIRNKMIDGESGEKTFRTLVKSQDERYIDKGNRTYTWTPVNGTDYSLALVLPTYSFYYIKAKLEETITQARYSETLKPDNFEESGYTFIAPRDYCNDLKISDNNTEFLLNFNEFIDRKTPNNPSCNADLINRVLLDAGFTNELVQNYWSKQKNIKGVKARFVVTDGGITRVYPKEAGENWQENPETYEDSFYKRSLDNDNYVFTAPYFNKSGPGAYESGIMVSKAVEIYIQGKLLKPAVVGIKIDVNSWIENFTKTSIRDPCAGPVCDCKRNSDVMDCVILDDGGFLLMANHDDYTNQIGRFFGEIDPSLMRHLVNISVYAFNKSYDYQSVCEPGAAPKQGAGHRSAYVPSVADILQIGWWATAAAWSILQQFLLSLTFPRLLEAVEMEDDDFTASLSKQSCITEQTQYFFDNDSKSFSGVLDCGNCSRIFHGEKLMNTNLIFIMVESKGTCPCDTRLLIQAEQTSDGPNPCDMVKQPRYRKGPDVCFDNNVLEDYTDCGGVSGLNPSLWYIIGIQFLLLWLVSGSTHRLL
Summary of the method: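 Radioligand filtration binding at the α2δ-1 subunit, test compound at five concentrations; nonspecific binding defined with 10 μM pregabalin. Incubated 60 min at 27 °C, stopped by GF/C filtration (0.5% PEI presoaked) with ice-cold 50 mM Tris-HCl pH 7.4 washes; bound radioactivity counted by scintillation.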

Row | SMILES | Ki [1] [nM] | Ki ([2]; Table 1) [nM] | Ki ([2]; Table 2, dual compounds) [nM]
1 | CNCC[C@H](Oc1ccc(CN2CCCn3nccc3C2=O)c(F)c1)c1ccccc1 [Example 145, (S)-5-(2-fluoro-4-(3-(methylamino)-1-phenylpropoxy)benzyl)-5,6,7,8-tetrahydro-4H-pyrazolo[1,5-a][1,4]diazepin-4-one] | < 100 | 500 to 3000 | 500 to 3000
2 | CCNc1ccc2c(n1)N(C)CCN(Cc1ccc(O[C@@H](CCNC)c3cccc(F)c3)cc1F)C2=O [Example 148, (S)-8-(ethylamino)-4-(2-fluoro-4-(1-(3-fluorophenyl)-3-(methylamino)propoxy)benzyl)-1-methyl-1,2,3,4-tetrahydro-5H-pyrido[2,3-e][1,4]diazepin-5-one] | < 100 | 100 to 500 | 100 to 500
3 | CCNc1ccc2c(n1)N(C)CCN(c1cccc(COC(CCNC)c3ccccc3)c1)C2=O (stereo not drawn) [Example 29, 8-(Ethylamino)-1-methyl-4-(3-((3-(methylamino)-1-phenylpropoxy)methyl)phenyl)-1,2,3,4-tetrahydro-5H-pyrido[2,3-e][1,4]diazepin-5-one] | 500 to 1000 | 500 to 3000 | 500 to 3000
4 | CNCC[C@H](Oc1cccc(N2CCN(C(C)C)CCC2=O)c1)c1cccs1 [Example 66, (S)-1-isopropyl-4-(3-(3-(methylamino)-1-(thiophen-2-yl)propoxy)phenyl)-1,4-diazepan-5-one] | 100 to 500 | 500 to 3000 | 500 to 3000
5 | CNCC[C@H](Oc1ccc(CN2CCN(C)c3ncccc3C2=O)c(F)c1)c1cccs1 [Example 108, (S)-4-(2-fluoro-4-(3-(methylamino)-1-(thiophen-2-yl)propoxy)benzyl)-1-methyl-1,2,3,4-tetrahydro-5H-pyrido[2,3-e)[1,4]diazepin-5-one] | 100 to 500 | < 100 | < 100
6 | CNCC[C@H](Oc1ccc(CN2CCN(C)c3nc(N)ccc3C2=O)c(Cl)c1)c1ccccc1 [Example 138, (S)-8-amino-4-(2-chloro-4-(3-(methylamino)-1-phenylpropoxy)benzyl)-1-methyl-1,2,3,4-tetrahydro-5H-pyrido[2,3-e][1,4]diazepin-5-one] | < 100 | < 100 | < 100
7 | CNCCC(Oc1cccc(N2CCN(C(C)C)CCC2=O)c1)c1cccs1 (stereo not drawn) [Example 60, 1-Isopropyl-4-(3-(3-(methylamino)-1-(thiophen-2-yl)propoxy)phenyl)-1,4-diazepan-5-one] | 500 to 1000 | 500 to 3000 | 500 to 3000
8 | CNCC[C@H](Oc1ccc(CN2CCCn3nc(OC)cc3C2=O)c(F)c1)c1ccccc1 [Example 144, (S)-5-(2-fluoro-4-(3-(methylamino)-1-phenylpropoxy)benzyl)-2-methoxy-5,6,7,8-tetrahydro-4H-pyrazolo[1,5-a][1,4]diazepin-4-one] | < 100 | 100 to 500 | 100 to 500
9 | CNCC[C@H](Oc1ccc(CN2CCN(C)c3nc(C)ccc3C2=O)cc1)c1cccs1 [Example 91, (S)-1,8-dimethyl-4-(4-(3-(methylamino)-1-(thiophen-2-yl)propoxy)benzyl)-1,2,3,4-tetrahydro-5H-pyrido[2,3-e][1,4]diazepin-5-one] | 100 to 500 | 100 to 500 | 100 to 500
10 | CNCC[C@H](Oc1cc(F)cc(N2CCN(C)c3ncccc3C2=O)c1)c1cccs1 [Example 120, (S)-4-(3-fluoro-5-(3-(methylamino)-1-(thiophen-2-yl)propoxy)phenyl)-1-methyl-1,2,3,4-tetrahydro-5H-pyrido[2,3-e][1,4]diazepin-5-one] | < 100 | < 100 | < 100
11 | CNCCC(OCc1cccc(N2CCCN(C)CC2)c1)c1cccs1 (stereo not drawn) [Example 10, N-methyl-3-((3-(4-methyl-1,4-diazepan-1-yl)benzyl)oxy)-3-(thiophen-2-yl)propan-1-amine] | 500 to 1000 | 500 to 3000 | 500 to 3000
